pIC50: −log10 of the molar value.
Tested on: 616215-338-R-J1-PDC tumor spheroids, viability
Experiment: Anticancer human tumor 616215-338-R-J1-PDC patient-derived colon adenocarcinoma cell line growth inhibition [GQUAD]
Details: spheroids with HUVEC and MSC; for pIC50: curve of first compound; for viability, T/C: stronger effect = lower value
Summary of the method: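 Viability of tumor cells grown as complex spheroids with endothelial and stromal cells, exposed to drug combinations. Top concentration at or near clinical Cmax (else 10 microM), diluted in half-log increments.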

[1] = second compound 0.0316 µM, first compound 0.0316 µM
[2] = second compound 0.0316 µM, first compound 0.1 µM
[3] = second compound 0.0316 µM, first compound 0.316 µM
[4] = second compound 0.0316 µM, first compound 1 µM
[5] = second compound 0.0316 µM, first compound 3.16 µM
[6] = second compound 0.0316 µM, first compound 10 µM
[7] = second compound 0.1 µM, first compound 0.0316 µM
[8] = second compound 0.1 µM, first compound 0.1 µM
[9] = second compound 0.1 µM, first compound 0.316 µM
[10] = second compound 0.1 µM, first compound 1 µM
[11] = second compound 0.1 µM, first compound 3.16 µM
[12] = second compound 0.1 µM, first compound 10 µM
[13] = second compound 0.316 µM, first compound 0.0316 µM
[14] = second compound 0.316 µM, first compound 0.1 µM
[15] = second compound 0.316 µM, first compound 0.316 µM
[16] = second compound 0.316 µM, first compound 1 µM
[17] = second compound 0.316 µM, first compound 3.16 µM
[18] = second compound 0.316 µM, first compound 10 µM
[19] = second compound 1 µM, first compound 0.0316 µM
[20] = second compound 1 µM, first compound 0.1 µM
[21] = second compound 1 µM, first compound 0.316 µM
[22] = second compound 1 µM, first compound 1 µM
[23] = second compound 1 µM, first compound 3.16 µM
[24] = second compound 1 µM, first compound 10 µM
[25] = second compound 3.16 µM, first compound 0.0316 µM
[26] = second compound 3.16 µM, first compound 0.1 µM
[27] = second compound 3.16 µM, first compound 0.316 µM
[28] = second compound 3.16 µM, first compound 1 µM
[29] = second compound 3.16 µM, first compound 3.16 µM
[30] = second compound 3.16 µM, first compound 10 µM
[31] = second compound 10 µM, first compound 0.0316 µM
[32] = second compound 10 µM, first compound 0.1 µM
[33] = second compound 10 µM, first compound 0.316 µM
[34] = second compound 10 µM, first compound 1 µM
[35] = second compound 10 µM, first compound 3.16 µM
[36] = second compound 10 µM, first compound 10 µM
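Note: spheroids exposed to agents for 7 days before readout.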
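Throughout, for viability, T/C: percent viability relative to DMSO vehicle control wells taken as 100%.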

`COc1ncnc(C2CC2)c1-c1ncc2cnn(Cc3ccc(-c4nc(C(F)(F)F)cn4C(C)C)cc3)c2n1` + CN(C)c1ccc(Nc2c3ccc(NC(=O)CCN4CCCC4)cc3nc3cc(NC(=O)CCN4CCCC4)ccc23)cc1 showed a pIC50 (second compound 0.0316 µM) of less than 5.00, a pIC50 (second compound 0.1 µM) of less than 5.00 and a pIC50 (second compound 0.316 µM) of less than 5.00. For the same compound, the pIC50 (second compound 1 µM) was less than 5.00, the pIC50 (second compound 3.16 µM) was less than 5.00 and the pIC50 (second compound 10 µM) was 5.03. For the same compound, the viability, T/C [1] was 114%, the viability, T/C [2] was 101% and the viability, T/C [3] was 105%. It also gave a viability, T/C [4] of 96.3%, a viability, T/C [5] of 109% and a viability, T/C [6] of 97.5%. For the same compound, the viability, T/C [7] was 102%, the viability, T/C [8] was 96.1% and the viability, T/C [9] was 100%. It also gave a viability, T/C [10] of 101%, a viability, T/C [11] of 114% and a viability, T/C [12] of 90.2%. The viability, T/C [13] was 106%, the viability, T/C [14] was 95.3% and the viability, T/C [15] was 96.9%. The viability, T/C [16] was 104%, the viability, T/C [17] was 101% and the viability, T/C [18] was 93.7%. It also gave a viability, T/C [19] of 101%, a viability, T/C [20] of 114% and a viability, T/C [21] of 105%. It also gave a viability, T/C [22] of 101%, a viability, T/C [23] of 101% and a viability, T/C [24] of 92.1%. For the same compound, the viability, T/C [25] was 96.4%, the viability, T/C [26] was 91.2% and the viability, T/C [27] was 91.4%. For the same compound, the viability, T/C [28] was 105%, the viability, T/C [29] was 93.2% and the viability, T/C [30] was 97.7%. For the same compound, the viability, T/C [31] was 91.7%, the viability, T/C [32] was 85.3% and the viability, T/C [33] was 97.3%. The viability, T/C [34] was 90.3%, the viability, T/C [35] was 86.2% and the viability, T/C [36] was 47.8%.
With `O=C(NO)c1cnc(N2CCN(S(=O)(=O)c3ccc4ccccc4c3)CC2)nc1` + Cc1[nH]c2ccc(F)cc2c1-c1nc2c3cccnc3c3ncccc3c2[nH]1 the pIC50 (second compound 0.0316 µM) was 6.39, the pIC50 (second compound 0.1 µM) was 6.46 and the pIC50 (second compound 0.316 µM) was 6.33. The pIC50 (second compound 1 µM) was 6.43, the pIC50 (second compound 3.16 µM) was 6.49 and the pIC50 (second compound 10 µM) was 6.37. The viability, T/C [1] was 96.2%, the viability, T/C [2] was 94% and the viability, T/C [3] was 62%. The viability, T/C [4] was 6.64%, the viability, T/C [5] was 0.1% and the viability, T/C [6] was 0.12%. The viability, T/C [7] was 98.6%, the viability, T/C [8] was 94.8% and the viability, T/C [9] was 53.8%. For the same compound, the viability, T/C [10] was 1.07%, the viability, T/C [11] was 0.04% and the viability, T/C [12] was 0.07%. The viability, T/C [13] was 117%, the viability, T/C [14] was 110% and the viability, T/C [15] was 74.5%. For the same compound, the viability, T/C [16] was 1.02%, the viability, T/C [17] was 0.02% and the viability, T/C [18] was 0.05%. For the same compound, the viability, T/C [19] was 103%, the viability, T/C [20] was 94.6% and the viability, T/C [21] was 57.6%. The viability, T/C [22] was 4.76%, the viability, T/C [23] was 0.03% and the viability, T/C [24] was 0.06%. For the same compound, the viability, T/C [25] was 104%, the viability, T/C [26] was 96.9% and the viability, T/C [27] was 51.4%. It also gave a viability, T/C [28] of 2.81%, a viability, T/C [29] of 0.06% and a viability, T/C [30] of 0.08%. The viability, T/C [31] was 103%, the viability, T/C [32] was 94.6% and the viability, T/C [33] was 65.7%. For the same compound, the viability, T/C [34] was 3.03%, the viability, T/C [35] was 0.15% and the viability, T/C [36] was 0.63%.
In the case of `CC(=O)O[C@H]1C(=O)[C@@]2(C)[C@H]([C@H](OC(=O)c3ccccc3)[C@]3(O)C[C@H](OC(=O)[C@H](O)[C@@H](NC(=O)c4ccccc4)c4ccccc4)C(C)=C1C3(C)C)[C@]1(OC(C)=O)CO[C@@H]1C[C@@H]2O` + CN(C)c1ccc(Nc2c3ccc(NC(=O)CCN4CCCC4)cc3nc3cc(NC(=O)CCN4CCCC4)ccc23)cc1, the pIC50 (second compound 0.0316 µM) was greater than 7.50, the pIC50 (second compound 0.1 µM) was greater than 7.50 and the pIC50 (second compound 0.316 µM) was greater than 7.50. For the same compound, the pIC50 (second compound 1 µM) was greater than 7.50, the pIC50 (second compound 3.16 µM) was greater than 7.50 and the pIC50 (second compound 10 µM) was greater than 7.50. It also gave a viability, T/C [1] of 28.9%, a viability, T/C [2] of 20.4% and a viability, T/C [3] of 18.1%. The viability, T/C [4] was 14.6%, the viability, T/C [5] was 12.1% and the viability, T/C [6] was 13.2%. The viability, T/C [7] was 24.7%, the viability, T/C [8] was 19.5% and the viability, T/C [9] was 16.4%. The viability, T/C [10] was 14%, the viability, T/C [11] was 12.8% and the viability, T/C [12] was 11.4%. For the same compound, the viability, T/C [13] was 41.4%, the viability, T/C [14] was 22.1% and the viability, T/C [15] was 14.8%. The viability, T/C [16] was 10.8%, the viability, T/C [17] was 12.3% and the viability, T/C [18] was 14.2%. The viability, T/C [19] was 34%, the viability, T/C [20] was 15% and the viability, T/C [21] was 16%. For the same compound, the viability, T/C [22] was 8.58%, the viability, T/C [23] was 16.5% and the viability, T/C [24] was 12.9%. For the same compound, the viability, T/C [25] was 28.6%, the viability, T/C [26] was 14.3% and the viability, T/C [27] was 15.3%. For the same compound, the viability, T/C [28] was 11.1%, the viability, T/C [29] was 11.2% and the viability, T/C [30] was 11.8%. The viability, T/C [31] was 26.2%, the viability, T/C [32] was 16.4% and the viability, T/C [33] was 17.4%. The viability, T/C [34] was 12.2%, the viability, T/C [35] was 9.14% and the viability, T/C [36] was 11.9%.

Reference: PubChem BioAssay AID2060493 (Molecular Pharmacology Branch, DTP, NCI, 2025)
